In PubChem BioAssay (NCI) one finds GI50 and TGI data, which are given here for ten molecules.

Some test systems named below: SNB-19 CNS; HCT-15 colon; MDA-MB-231 breast; BT-549 breast; MOLT-4 leukemia; OVCAR-3 ovarian; HCC-2998 colon.
Test in all cases: DTP human tumour cell line panel, 48 h

Structures are written as SMILES. “And” between values parts separate entries of the source, which are not always exact repeats. Identical values can stand only once.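 Following 48 hours of exposure in 96-well plates, responses at five concentrations were used to interpolate endpoints linearly. Here, GI50 denotes the concentration required for 50% inhibition of growth. TGI: concentration producing complete growth inhibition.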

Turning to `CN(Cc1cnc2nc(N)nc(N)c2n1)c1c(Cl)cc(C(=O)NC(CCC(=O)O)C(=O)O)cc1Cl` (stereo not drawn), the GI50 (in general, the concentration at which growth is held to half of that of the control) in the experiment on SNB-19 CNS is 0.0395 µM; in the experiment with HCT-15 colon it was under 0.01 µM; in the experiment on BT-549 breast it was 1.4 µM; in the experiment with MOLT-4 leukemia, under 0.0201 µM; in the experiment on OVCAR-3 ovarian it was 0.0685 µM; in the experiment on HCC-2998 colon, under 0.0148 µM. Besides, the total growth inhibition concentration (TGI) in the experiment on SNB-19 CNS, in the experiment on HCT-15 colon, in the experiment with MDA-MB-231 breast, in the experiment with BT-549 breast, in the experiment with MOLT-4 leukemia and with OVCAR-3 ovarian was over 100 µM each time. Besides, the TGI (usually the concentration at which net growth stops) in the experiment on HCC-2998 colon is over 100 µM.
Regarding `COC1CCC(OC)C(c2nc3sccn3c2/C=N/N=C(N)N)C1` (stereo not drawn), the GI50 in the experiment with SNB-19 CNS is 33.8 µM; with HCT-15 colon, over 100 µM; with MDA-MB-231 breast, 1.68 µM; in the experiment with BT-549 breast, 18.4 µM; in the experiment on MOLT-4 leukemia it was over 74.6 µM; in the experiment on OVCAR-3 ovarian, 7.76 µM. The GI50 in the experiment on HCC-2998 colon was 31.1 µM. The TGI in the experiment on SNB-19 CNS is over 96.4 µM; in the experiment on HCT-15 colon it was over 100 µM; with MDA-MB-231 breast, 32.8 µM; with BT-549 breast, 42.4 µM; in the experiment with MOLT-4 leukemia, over 100 µM; with OVCAR-3 ovarian it was 36.3 µM. The TGI in the experiment on HCC-2998 colon came out at 54.5 µM.
With `CCOc1ccc2cc(-c3nn(CC4CCN(C)CC4)c4ncnc(N)c34)ccc2c1`, the GI50 was 15.6 µM with SNB-19 CNS; 12.3 µM in the experiment on HCT-15 colon; 4.52 µM in the experiment with MDA-MB-231 breast; 13.6 µM in the experiment with BT-549 breast; 4.84 µM in the experiment on MOLT-4 leukemia; 16.2 µM with OVCAR-3 ovarian. Besides, the GI50 with HCC-2998 colon was 17.1 µM. The TGI was found to be 45.9 µM in the experiment with SNB-19 CNS; 30.9 µM in the experiment with HCT-15 colon; 18.4 µM in the experiment on MDA-MB-231 breast; 29 µM in the experiment with BT-549 breast; 24.6 µM in the experiment with MOLT-4 leukemia; 39.7 µM in the experiment with OVCAR-3 ovarian. Also, the TGI in the experiment with HCC-2998 colon stood at 32 µM.
As for `CCCC(=O)Nc1cc(/C=C/C(=O)N2C[C@@H]3C[C@]34C2=CC(=O)c2[nH]cc(C)c24)n(C)c1`, the values for the 50% growth inhibitory concentration (GI50) with SNB-19 CNS, in the experiment on BT-549 breast and in the experiment with HCC-2998 colon were 0.18 µM, 0.233 µM and 0.114 µM, respectively. Further, the TGI was 25 µM and 11.3 µM in the experiment with SNB-19 CNS; 9.89 µM with HCT-15 colon; 1.68 µM in the experiment with MDA-MB-231 breast; 1.96 µM and 0.749 µM in the experiment on BT-549 breast; 0.134 µM and 0.515 µM with MOLT-4 leukemia; 1.2 µM in the experiment with OVCAR-3 ovarian. In the experiment with HCC-2998 colon, the concentration for total growth inhibition (TGI) was 0.687 µM and 0.37 µM.
Consider `Cn1cc(-c2csc(-c3ccc(Cl)cc3)n2)c2cccnc21`, for which the GI50 with SNB-19 CNS is 13.8 µM; with HCT-15 colon, 12.2 µM; in the experiment with MDA-MB-231 breast it was 13.3 µM; in the experiment on BT-549 breast, 18.6 µM; with MOLT-4 leukemia, 12.4 µM; in the experiment on OVCAR-3 ovarian, 17.1 µM. Besides, the GI50 with HCC-2998 colon is 14.6 µM. For the same molecule, the TGI in the experiment on SNB-19 CNS is 30.2 µM; with HCT-15 colon it was 29.3 µM; in the experiment on MDA-MB-231 breast, 33.3 µM; in the experiment on BT-549 breast, 51.9 µM; in the experiment on MOLT-4 leukemia, 38.6 µM; in the experiment with OVCAR-3 ovarian, 35.6 µM. The TGI in the experiment on HCC-2998 colon was 28.8 µM.
Take `COc1ccc(C(=O)Cn2c(C(=O)c3ccc(Cl)cc3)nc(-c3ccccc3)c2-c2ccccc2)cc1`: the GI50 is 78.3 µM in the experiment on SNB-19 CNS; over 100 µM in the experiment with HCT-15 colon; 44 µM in the experiment with MDA-MB-231 breast; over 100 µM with BT-549 breast; over 100 µM with MOLT-4 leukemia; over 100 µM with OVCAR-3 ovarian. In addition, the GI50 with HCC-2998 colon is over 100 µM. Moreover, the TGI in the experiment on SNB-19 CNS, in the experiment on HCT-15 colon, with MDA-MB-231 breast, in the experiment with BT-549 breast, with MOLT-4 leukemia and with OVCAR-3 ovarian was over 100 µM throughout. In the experiment with HCC-2998 colon, this molecule yielded a TGI of over 100 µM.
As for `COc1cc(C=NCC(=O)CSC(c2ccccc2)c2ccccc2)ccc1O`, the GI50 with SNB-19 CNS is 14.5 µM; in the experiment on HCT-15 colon it was 13.8 µM; with MDA-MB-231 breast, 12.8 µM; in the experiment with BT-549 breast, 14 µM; in the experiment with MOLT-4 leukemia, 9.05 µM; with OVCAR-3 ovarian, 11.3 µM. In the experiment with HCC-2998 colon, the GI50 is 3.6 µM. The TGI in the experiment with SNB-19 CNS came out at 28.7 µM; in the experiment with HCT-15 colon, 30.8 µM; in the experiment with MDA-MB-231 breast it was 26.7 µM; in the experiment on BT-549 breast it was 31.6 µM; in the experiment with MOLT-4 leukemia it was 31.8 µM; in the experiment on OVCAR-3 ovarian, 24.9 µM. The molecule also gave a TGI with HCC-2998 colon of 16.5 µM.
In the case of `COc1cc(N)c(Cl)cc1C(=O)N[C@@H]1CCN(CCCOc2ccc(F)cc2)C[C@@H]1OC`, the GI50 is over 100 µM in the experiment on SNB-19 CNS; 23.6 µM in the experiment with HCT-15 colon; 60.2 µM with MDA-MB-231 breast; 34.9 µM in the experiment on BT-549 breast; 29.8 µM in the experiment with MOLT-4 leukemia; over 100 µM in the experiment on OVCAR-3 ovarian. In addition, the GI50 in the experiment on HCC-2998 colon is 35.2 µM. In addition, the TGI with SNB-19 CNS, in the experiment with HCT-15 colon, in the experiment on MDA-MB-231 breast, in the experiment with BT-549 breast, with MOLT-4 leukemia and in the experiment with OVCAR-3 ovarian was over 100 µM throughout. Besides, the concentration for total growth inhibition (TGI) in the experiment with HCC-2998 colon was over 100 µM.
Consider `COc1c(OC2OC(C)C(O)C(O)C2O)c(OC)c2oc(-c3ccc(O)cc3)cc(=O)c2c1O` (stereo not drawn), for which the GI50 in the experiment with SNB-19 CNS was 45.2 µM; in the experiment on HCT-15 colon it was 40.3 µM; in the experiment with MDA-MB-231 breast it was 16.5 µM; in the experiment with BT-549 breast, 25.4 µM; in the experiment with MOLT-4 leukemia it was 15.4 µM; in the experiment on OVCAR-3 ovarian, 21.5 µM. The GI50 with HCC-2998 colon is 37.2 µM. Further, the TGI was over 100 µM with SNB-19 CNS; over 100 µM in the experiment on HCT-15 colon; 71.8 µM in the experiment on MDA-MB-231 breast; 72.6 µM in the experiment with BT-549 breast; over 100 µM with MOLT-4 leukemia; 64.4 µM in the experiment with OVCAR-3 ovarian. Also, the TGI in the experiment on HCC-2998 colon was over 100 µM.
Consider `CC(=O)/C(=N\N=C(N)N)c1ccccc1`, for which the TGI with SNB-19 CNS, with HCT-15 colon, in the experiment with MDA-MB-231 breast, in the experiment with BT-549 breast, in the experiment with MOLT-4 leukemia and with OVCAR-3 ovarian was over 100 µM throughout. Further, the TGI in the experiment with HCC-2998 colon is over 100 µM.
